The record followed here is patent US8158621B2, “Methods of treating or preventing autoimmune diseases with 2,4-pyrimidinediamine compounds” (Rigel Pharmaceuticals, Inc., priority 2002, dated 2012).

A value given as a limit tells only on which side of the number the result lay.

The first test deals with Human Jurkat T-cells (clone N). Description: Jurkat T-cell activation (anti-TCR, CD69 upregulation). Type of test: cell-based.
Details: not given
A digest of the protocol: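 Jurkat cells in RPMI + 5% FBS preincubated with compound 1 h at 37 °C, then stimulated with anti-TCR C305 at 500 ng/ml for 20 h. CD69 surface expression stained with anti-CD69-APC and read by flow cytometry; IC50 versus solvent-only control.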
What is called IC50 is the point on the concentration scale where inhibition reaches its midpoint. Low values mean higher potency, high ones lower potency. Consider `OCCOc1cccc(Nc2ncc(CO)c(Nc3cccc(O)c3)n2)c1` [Compound R926735], for which the IC50 is 5.98 µM.

On to `COc1ccc(Nc2ncc(C)c(Nc3ccc(OC)c(-c4ccccc4)c3)n2)cc1-c1ccccc1` [Compound R935002], for which the IC50 is > 10 µM. `Oc1cccc(Nc2ncc(F)c(Nc3ccc(OCc4nc(-c5ccccc5)no4)cc3)n2)c1` [Compound R935138] registered an IC50 of 0.46 µM. The same measure, in the same setting: then `CC(C)(CO)c1ccc(Nc2ncc(F)c(Nc3cccc(O)c3)n2)cc1` [Compound R935171], with 3.93 µM; and `COC(=O)COc1ccc(Nc2ncc(F)c(Nc3cccc(C#N)c3)n2)cc1` [Compound R945110], with > 10 µM; and `COc1cc(C(=O)NS(=O)(=O)c2ccccc2C)ccc1Cn1ncc2ccc(Nc3ncc(F)c(Nc4ccc5c(c4)OCCO5)n3)cc21` [Compound R935323], with > 10 µM. For `CCOC(=O)COc1ccc(Nc2nc(Cl)cc(NCC(=O)OC)n2)cc1` [Compound R926555], the IC50 was > 10 µM. Take `Cn1nc(I)c2cc(Nc3ncc(F)c(Nc4ccc(I)c(O)c4I)n3)ccc21` [Compound R935221]: the IC50 is > 10 µM. Same read-out and setting: then `CC(C)NC(=O)COc1ccc(Nc2ncc(C#N)c(Nc3ccc(OCC(=O)NC(C)C)cc3)n2)cc1` [Compound R925861], with 20.2 µM; and `COC(=O)Cn1ncc2ccc(Nc3nc(Nc4ccc(OC(C)C)cc4)ncc3F)cc21` [Compound R935218], with 22.7 µM; and `CC(C)(C)c1ccc(Nc2nc(Nc3cccc(OCCO)c3)ncc2F)cc1` [Compound R926728], with > 10 µM. Take `CCOC(=O)COc1cccc(Nc2ncc(F)c(Nc3cccc(C(C)(C)C)c3)n2)c1` [Compound R940270]: the IC50 was > 10 µM. In the case of `O=C1CN=C2COc3ccc(Nc4nc(Nc5cccc(O)c5)ncc4F)cc3N12` [Compound R945236], half-maximal inhibition (IC50) required 2.92 µM. Turning to `CNC(=O)COc1cccc(Nc2ncc(F)c(Nc3cnc4c(c3)OCC(=O)N4)n2)c1` [Compound R945242], 1.71 µM corresponded to half-maximal inhibition (IC50). In turn, `CSc1nc2ccc(Nc3ncc(F)c(Nc4cccc(O)c4)n3)cc2s1` [Compound R950212] came in with an IC50 of 9.5 µM. Same read-out and setting: in the case of `CC(C)(CO)c1ccc(Nc2nc(Nc3ccc4c(c3)OCCO4)ncc2F)cc1` [Compound R935173] it was 3.91 µM. The molecule `CNC(=O)COc1cccc(Nc2nc(Nc3cccc(O)c3)ncc2C(F)(F)F)c1` [Compound R926741] registered an IC50 of 4.59 µM. As to `CNC(=O)COc1ccc(Nc2ncc(F)c(Nc3ccc4c(c3)OCCCO4)n2)cc1` [Compound R935184], inhibition was half-maximal at 4.08 µM (IC50).

In the case of `COC(=O)COc1cccc(Nc2ncc(F)c(Nc3ccc4c(c3)OCCCO4)n2)c1` [Compound R935185], the IC50 is 4.11 µM.

`CNC(=O)COc1cc(Nc2ncc(F)c(Nc3cccc(O)c3)n2)cc(OCC(=O)NC)c1` [Compound R926930]: the IC50 was 10.5 µM. For `CNC(=O)Cn1ncc2ccc(Nc3ncc(F)c(Nc4ccc5cnn(CC(=O)NC)c5c4)n3)cc21` [Compound R935206], the IC50 was > 10 µM.

Turning to `COC(=O)Cn1ncc2cc(Nc3nc(Nc4ccc5c(c4)OCCO5)ncc3F)ccc21` [Compound R935249], the IC50 was determined as 4.83 µM. The same measure, in the same setting: in the case of `CCOC(=O)C(C)(C)Oc1cccc(Nc2ncc(F)c(Nc3ccc(C)c(O)c3)n2)c1` [Compound R926908] it was 30.6 µM; in that of `CNC(=O)COc1cccc(Nc2ncc(F)c(Nc3ccc4c(c3)C(=NO)CCO4)n2)c1` [Compound R950348], 0.224 µM. `COC(=O)c1ccc(Cn2cc3ccc(Nc4ncc(F)c(Nc5ccc6c(c5)OCCO6)n4)cc3n2)c(OC)c1` [Compound R935336]: the midpoint of inhibition, the IC50, lay at 2.88 µM. In turn, `O=C(CNc1cccc(Nc2ncc(F)c(Nc3cccc(O)c3)n2)c1)NCCN1CCOCC1` [Compound R950226] displayed an IC50 of 2.92 µM. On the same count and under the same terms, then `O=C(NCCO)c1cc2cc(Nc3ncc(F)c(Nc4ccc5oc(C(=O)NCCO)cc5c4)n3)ccc2o1` [Compound R950167], with > 10 µM; and `CNC(=O)COc1cccc(Nc2ncc(F)c(Nc3ccc4c(c3)OC(F)(F)C(F)(F)O4)n2)c1` [Compound R926732], with 5.26 µM; and `O=C1CCOc2ccc(Nc3ncc(F)c(Nc4ccc5c(c4)C(=O)CCO5)n3)cc21` [Compound R950378], with > 10 µM. On the same count and under the same terms, then `O=C(COc1cccc(Nc2ncc(F)c(Nc3ccc4c(c3)OCCO4)n2)c1)N(CCO)CCO` [Compound R926781], with 9.81 µM; and `CNC(=O)COc1ccc(Nc2ncc(F)c(Nc3ccc4c(c3)OCCO4)n2)cc1` [Compound R926708], with 3.3 µM; and `COC(=O)c1cc2cc(Nc3nc(Nc4cccc(OCc5noc(C)n5)c4)ncc3F)ccc2o1` [Compound R945131], with 19.2 µM. The same measure, in the same setting: then `O=C(O)COc1ccc(Nc2ncc(F)c(Nc3ccc(OCC(=O)O)cc3)n2)cc1` [Compound R926560], with > 10 µM; and `COC(=O)Cn1ncc2cc(Nc3ncc(F)c(Nc4ccc5c(c4)OCCO5)n3)ccc21` [Compound R935223], with 4.57 µM; and `C[C@H](Nc1ncc(F)c(N[C@@H](C)[C@H](O)c2ccccc2)n1)[C@H](O)c1ccccc1` [Compound R925767], with > 10 µM. Molecule `CC1(C)Oc2ccc(Nc3nc(Nc4cccc(O)c4)ncc3F)cc2NC1=O` [Compound R940346] gave an IC50 of 2.09 µM. With `CCOC(=O)COc1ccc(Nc2nc(Nc3ccc(OCC(=O)OCC)cc3)c(NC(=O)Nc3ccccc3)c(C(=O)OCC)n2)cc1` [Compound R926571], the IC50 was > 10 µM.

For `CC(C)(CO)c1ccc(Nc2nc(Nc3ccc4c(c3)OCCO4)ncc2F)cc1` [Compound R935149], the IC50 was > 10 µM. In the case of `Nc1cccc(Nc2nc(Nc3cccc(NC(=O)CCC(N)C(=O)O)c3)ncc2F)c1` (racemic) [Compound R950255], the IC50 was > 10 µM. The molecule `CCCCNC(=O)COc1ccc(Nc2ncc(C#N)c(Nc3ccc(OCC(=O)NCCCC)cc3)n2)cc1` [Compound R925860] registered an IC50 of 41.9 µM.

`Oc1cccc(Nc2nc(Nc3ccc(OCC4=NCCCN4)cc3)ncc2F)c1` [Compound R945169] showed an IC50 of 2.38 µM.

Still in this test, the particulars now being: Homo sapiens.
As to `O=[N+]([O-])c1cc(Nc2ncc(F)c(Nc3ccc(Cl)c([N+](=O)[O-])c3)n2)ccc1Cl` [Compound R950149], the IC50 was > 10 µM. Same read-out and setting: then `COc1ccc([N+](=O)[O-])cc1Nc1ncc(F)c(Nc2cc([N+](=O)[O-])ccc2OC)n1` [Compound R950151], with 14.2 µM.

The test is the same for the next values; noted with them: Homo sapiens, Jurkat.
In turn, `CCNC(=O)Nc1cccc(Nc2ncc(F)c(Nc3cccc(NC(=O)NCC)c3)n2)c1` [Compound R945045] registered an IC50 of 7.6 µM. The same measure, in the same setting: then `Cc1ccc(Nc2ncc(F)c(Nc3ccc(C)cc3)n2)cc1` [Compound R926225], with > 10 µM; and `CC(C)Oc1ccc(Nc2ncc(F)c(Nc3cccc(N)c3)n2)cc1` [Compound R950165], with 7.59 µM. As for `CCOc1ccc(Nc2cc(Cl)nc(Nc3ccc(OCC)cc3)n2)cc1` [Compound R926072], the IC50 is > 10 µM. Still for that read-out and setting: then `O=C(O)c1cc2cc(Nc3ncc(F)c(Nc4ccc5c(c4)OCCO5)n3)ccc2o1` [Compound R926698], with > 10 µM; and `Fc1cc(F)cc(Nc2ncc(F)c(Nc3ccc4c(c3)OCCO4)n2)c1` [Compound R926898], with > 10 µM; and `Nc1cccc(Nc2ncc(F)c(Nc3cccc(N)c3)n2)c1` [Compound R950107], with 5.42 µM.

For `OCc1cc2cc(Nc3ncc(F)c(Nc4cccc(O)c4)n3)ccc2o1` [Compound R926707], half-maximal inhibition (IC50) required 2.68 µM.

Turning to `Oc1cccc(Nc2cc(-c3ccccc3)nc(Nc3cccc(O)c3)n2)c1` [Compound R925812], the IC50 is > 10 µM. Still for that read-out and setting: in the case of `CCOc1ccc(Nc2cc(C(=O)OC)nc(Nc3ccc(OCC)cc3)n2)cc1` [Compound R926058] it was > 10 µM.

As to `CCOc1ccc(Nc2ncc(F)c(Nc3ccc(OC)c(OC)c3)n2)cc1` [Compound R926145], the IC50 is 17.7 µM.

On to `O=C(O)c1ccc(Nc2ncc(F)c(Nc3ccc(C(=O)O)c(O)c3)n2)cc1O` [Compound R945061], for which the IC50 is > 10 µM. Still for that read-out and setting: in the case of `Fc1cnc(NC(c2ccccc2)c2ccccc2)nc1NC(c1ccccc1)c1ccccc1` [Compound R935005] it was > 10 µM; in that of `COC(=O)c1ccc(Nc2ncc(F)c(Nc3ccc(C(=O)OC)c(O)c3)n2)cc1O` [Compound R945056], > 10 µM; in that of `OCCOc1ccc(Nc2ncc(F)c(Nc3ccc4oc(CO)cc4c3)n2)cc1` [Compound R935174], 3.99 µM. Same read-out and setting: then `CCOc1ccc(Nc2ncc(C)c(Nc3ccc(OCC)cc3)n2)cc1` [Compound R926068], with 11.4 µM; and `O=C(O)c1cccc(Nc2ncc(F)c(Nc3cccc(C(=O)O)c3)n2)c1` [Compound R945036], with > 10 µM; and `COc1ccc(C(Nc2ncc(F)c(NC(c3ccc(OC)cc3)c3ccc(OC)cc3)n2)c2ccc(OC)cc2)cc1` [Compound R935004], with > 10 µM. Same read-out and setting: in the case of `CCOC(=O)c1nc(Nc2ccc3c(c2)OCCO3)nc(Nc2ccc3c(c2)OCCO3)c1[N+](=O)[O-]` [Compound R925852] it was > 10 µM; in that of `Cc1cnc(Nc2ccccc2-c2ccccc2)nc1Nc1ccccc1-c1ccccc1` [Compound R926404], > 10 µM; in that of `Fc1cnc(Nc2ccc3c(c2)OCCO3)nc1Nc1ccc(N2CCN(Cc3ccccc3)CC2)cc1` [Compound R945155], 7.07 µM. The molecule `Oc1cccc(Nc2ncc(F)c(Nc3ccc4c(c3)C=CCC4)n2)c1` [Compound R926943] gave an IC50 of 18.5 µM. `CCOC(=O)c1cnc(Nc2ccc(CC#N)cc2)nc1Nc1ccc(CC#N)cc1` [Compound R926319] gave an IC50 of 15.6 µM. Same read-out and setting: then `Fc1cnc(Nc2cccc(OC(F)(F)F)c2)nc1Nc1cccc(OC(F)(F)F)c1` [Compound R926038], with > 10 µM; and `Brc1cnc(Nc2ccc3c(c2)OCCO3)nc1Nc1ccc2c(c1)OCCO2` [Compound R925771], with 7.19 µM.

In turn, `CC(C)Oc1ccc(Nc2nc(Nc3ccc(OCCO)cc3)ncc2F)cc1` [Compound R935160] returned an IC50 of 2.37 µM.
